In ChEMBL document CHEMBL1799954, “Structure and cytotoxicity of diterpenoids from Isodon adenolomus” (J Nat Prod, 2011) one finds IC50 data, which are given here for 22 compounds.

Holding throughout (type): functional, cell-based
For one assay, the system named is SMMC-7721. The experiment in a line: Cytotoxicity against human SMMC7721 cells after 48 hrs by MTT method. To be noted: SMMC-7721, 48 h.
Another assay deals with A549. The experiment in a line: Cytotoxicity against human A549 cells after 48 hrs by MTT method. To be noted: A549, 48 h.
The next assay relates to SW480. The experiment in a line: Cytotoxicity against human SW480 cells after 48 hrs by MTT method. The settings on record: SW480, 48 h.
The test system of the next assay is HL-60. The experiment in a line: Cytotoxicity against human HL60 cells after 48 hrs by MTT method. To be noted: HL-60, 48 h.
The subject of another assay is MCF7. The experiment in a line: Cytotoxicity against human MCF7 cells after 48 hrs by MTT method. The settings on record: MCF7, 48 h.

Where only a bound is given, the exact number is not on record here.

For `C=C1C(=O)[C@]23C[C@H]1CC=C2[C@@]12CO[C@]3(O)[C@@H](O)[C@@H]1C(C)(C)CC[C@@H]2OC(C)=O` [ISOADENOLIN I], the IC50 stood at 3 µM in the assay on SMMC-7721; 5 µM in the assay on A549; 3.1 µM in the assay with SW480; 2.6 µM in the assay on HL-60; 2.6 µM in the assay with MCF7.
Take `C=C1[C@@H](O)[C@]23[C@H](O)[C@H]1CC[C@H]2[C@@]12C(=O)O[C@]3(O)[C@@H](O)[C@@H]1C(C)(C)CC[C@@H]2OC(C)=O`: the IC50 with SMMC-7721, in the assay with A549, in the assay with SW480, with HL-60 and in the assay on MCF7 was greater than 10 µM each time.
On to `COC[C@H]1C(=O)[C@@]23[C@H]4O[C@H]5O[C@]2(O)[C@@H](O)[C@@H]2C(C)(C)CC[C@H](O)[C@]52[C@@H]3CC[C@@H]14` [ISOADENOLIN C], for which the IC50 with SMMC-7721, with A549, with SW480, in the assay on HL-60 and in the assay with MCF7 was greater than 10 µM in each case.
On to `C=C1C(=O)[C@@]23[C@@H]4O[C@H]5O[C@@]2(O)[C@@H](O)[C@@H]2C(C)(C)CCC[C@]52[C@@H]3CC[C@@H]14` [XEROPHILUSIN B], for which the half-inhibitory concentration (IC50) with SMMC-7721 turned out to be 1.3 µM; with A549 it was 2 µM; with SW480 it was 0.9 µM; in the assay with HL-60, 0.8 µM; in the assay on MCF7, 1.1 µM.
Taken in the same sequence, the figures for `C=C1[C@@H](O)[C@@]23[C@H]4O[C@H]5O[C@]2(O)[C@@H](OC(C)=O)[C@@H]2C(C)(C)CCC[C@@]52[C@@H]3[C@@H](O)C[C@@H]14` [ISOADENOLIN A] were greater than 10 µM, greater than 10 µM, greater than 10 µM, greater than 10 µM and greater than 10 µM.
Taken in the same sequence, the figures for `C=C1C(=O)[C@@]23[C@H]4O[C@H]5O[C@]2(O)[C@@H](O)[C@@H]2C(C)(C)CC[C@H](OC(C)=O)[C@]52[C@@H]3CC[C@@H]14` [ISOADENOLIN B] were greater than 10 µM, greater than 10 µM, greater than 10 µM, greater than 10 µM and greater than 10 µM.
Taken in the same sequence, the figures for `C=C1C(=O)[C@]23[C@H](O)[C@H]1CC[C@H]2[C@@]12[C@H](OC)O[C@]3(O)[C@@H](O)[C@@H]1C(C)(C)CC[C@@H]2OC(C)=O` [ISOADENOLIN H] were greater than 10 µM, greater than 10 µM, greater than 10 µM, greater than 10 µM and greater than 10 µM.
In the case of `CC(=O)O[C@H]1C(=O)[C@@]2(C)[C@H]([C@H](OC(=O)c3ccccc3)[C@]3(O)C[C@H](OC(=O)[C@H](O)[C@@H](NC(=O)c4ccccc4)c4ccccc4)C(C)=C1C3(C)C)[C@]1(OC(C)=O)CO[C@@H]1C[C@@H]2O` [PACLITAXEL], the half-inhibitory concentration (IC50) in the assay with SMMC-7721 was less than 0.008 µM; with A549 it was less than 0.008 µM; in the assay on SW480, less than 0.008 µM; in the assay on HL-60, 0.01 µM; with MCF7, less than 0.008 µM.
Take `C=C1[C@@H](O)[C@]23[C@H](O)[C@H]1C[C@H](O)[C@H]2[C@@]12CCCC(C)(C)[C@H]1[C@H](O)[C@@]3(O)O[C@@H]2OC` [ISOADENOLIN E]: the IC50 in the assay with SMMC-7721, with A549, in the assay on SW480, with HL-60 and in the assay on MCF7 was greater than 10 µM in each case.
Regarding `C=C1C(=O)[C@@]23[C@@H]4OC5O[C@@]2(O)[C@@H](O)[C@@H]2C(C)(C)CC[C@@H](O)[C@]52[C@@H]3CC[C@@H]14` [PONICIDIN], the IC50 in the assay on SMMC-7721 came to 5 µM; in the assay on A549 it was 16.5 µM; in the assay on SW480, 2.8 µM; with HL-60, 7.4 µM; in the assay on MCF7, 16.3 µM.
In the same order, the values of `C=C1C(=O)[C@]23C[C@H]1C[C@@H](OC(C)=O)[C@H]2[C@]12CCCC(C)(C)[C@H]1[C@H](O)[C@@]3(O)OC2` [LONGIKAURIN E] are 1.9 µM, 3.9 µM, 2.4 µM, 1.8 µM and 1.9 µM.
Taken in the same sequence, the figures for `C=C1C(=O)[C@]23[C@H](O)[C@H]1CC[C@H]2[C@@]12[C@H](O)O[C@]3(O)[C@@H](O)[C@@H]1C(C)(C)CC[C@@H]2OC(C)=O` [XEROPHILUSIN J] were 4.6 µM, 21.7 µM, 2.7 µM, 7.6 µM and 9.7 µM.
In the same order, the values of `C=C1C(=O)[C@]23C[C@H]1CC[C@H]2[C@@]12CO[C@@]3(O)[C@@H](O)[C@@H]1C(C)(C)CC[C@@H]2OC(C)=O` [EFFUSANIN B] are 1 µM, 3.5 µM, 0.8 µM, 0.7 µM and 0.7 µM.
Take `C=C1C(=O)[C@]23[C@H](O)[C@H]1CC[C@H]2[C@@]12CO[C@@]3(O)[C@@H](O)[C@@H]1C(C)(C)CC[C@@H]2OC(C)=O` [LASIOKAURIN]: the IC50 in the assay on SMMC-7721 was 2 µM; in the assay on A549, 7.6 µM; in the assay on SW480 it was 2.3 µM; with HL-60, 3.2 µM; in the assay on MCF7, 5.3 µM.
Taken in the same sequence, the figures for `COC[C@@H]1C(=O)[C@]23[C@H](O)[C@H]1C[C@H](O)[C@H]2[C@@]12CCCC(C)(C)[C@H]1[C@H](O)[C@@]3(O)O[C@@H]2OC` [ISOADENOLIN D] were greater than 10 µM, greater than 10 µM, greater than 10 µM, greater than 10 µM and greater than 10 µM.
Taken in the same sequence, the figures for `C=C1C(=O)[C@@]23C(=CC[C@@H]1[C@H]2O)[C@@]12CO[C@]3(O)[C@@H](O)[C@@H]1C(C)(C)CC[C@@H]2OC(C)=O` [ISOADENOLIN J] were greater than 10 µM, greater than 10 µM, greater than 10 µM, greater than 10 µM and greater than 10 µM.
Taken in the same sequence, the figures for `C=C1[C@@H](O)[C@]23[C@H](O)[C@H]1C[C@H](O)[C@H]2[C@@]12CCCC(C)(C)[C@H]1[C@H](OC(C)=O)[C@@]3(O)O[C@@H]2OC` [ISOADENOLIN F] were greater than 10 µM, greater than 10 µM, greater than 10 µM, greater than 10 µM and greater than 10 µM.
As to `COC[C@H]1C(=O)[C@]23[C@H](O)[C@H]1CC[C@H]2[C@@]12CO[C@]3(O)[C@@H](O)[C@@H]1C(C)(C)CC[C@@H]2OC(C)=O` [LASIOKAURININ], the IC50 is 4.8 µM in the assay with SMMC-7721; 20.4 µM in the assay on A549; 4.9 µM in the assay with SW480; 6.8 µM with HL-60; 6 µM with MCF7.
Taken in the same sequence, the figures for `C=C1[C@H]2C[C@]3(C(=C[C@@H]2O)[C@@]24CO[C@]3(O)[C@@H](O)[C@@H]2C(C)(C)CC[C@@H]4OC(C)=O)[C@@H]1O` [ISOADENOLIN K] were 5.7 µM, 14.1 µM, 3.1 µM, 3.5 µM and 3 µM.
Take `C=C1[C@@H](O)[C@]23[C@H](O)[C@H]1C[C@H](OC(C)=O)[C@H]2[C@@]12CCCC(C)(C)[C@H]1[C@H](O)[C@@]3(O)O[C@@H]2OC` [ISOADENOLIN G]: the IC50 in the assay with SMMC-7721, with A549, in the assay with SW480, in the assay on HL-60 and with MCF7 was greater than 10 µM in each case.
Take `C=C1C(=O)[C@@]23[C@@H]4O[C@H]5O[C@@]2(O)[C@@H](O)[C@@H]2C(C)(C)CCC[C@]52[C@@H]3[C@@H](O)C[C@@H]14` [MACROCALIN B]: the 50% inhibitory concentration (IC50) with SMMC-7721 came to 9.1 µM; with A549, 31.9 µM; with SW480, 10.9 µM; in the assay on HL-60, 12.4 µM; with MCF7, 26.9 µM.
In the same order, the values of `C=C1C(=O)[C@]23[C@H](O)[C@H]1CC[C@H]2[C@]12CCCC(C)(C)[C@H]1[C@H](O)[C@]3(O)OC2=O` [XEROPHILUSIN N] are 3.6 µM, 9.7 µM, 3.5 µM, 3.8 µM and 7.9 µM.
